The numbers were not newly measured in patent US5298499A, “S-2-(substituted ethylamino)ethyl phosphorothioates” (Research Triangle Institute, priority 1991, dated 1994), which cites them from elsewhere.

For series [1] the following is noted: background statement.

Like-named read-outs stand apart in the source and are kept apart here.

For the molecule `NCCCNCCS` [Compound 2], the radioprotective activity result (literature) was “known to be a radioprotective agent”.
For the molecule `NCCCNCCSP(=O)(O)O` [WR2721, S-2-[3-aminopropylamino]ethylphosphorothioicacid], the radioprotective activity result (in vivo) is recorded as “most effective agent”. The “uptake in malignant and healthy tissue” value in series [1] is “comparable uptake”.
As for `NC(=O)CCNCCS` [Compound 3, 2-(2.varies.-carbamidoethylamino)ethanethiol], the radioprotective activity result (literature) is reported as “good radioprotective activity, comparable to that of compound 2”.
